Measurements from patent US12503452B2 (Curza Global, LLC, priority 2019, dated 2025).
Structures can show the parent of a compound that is named as a salt. Where two headings read alike, the source gives them in different places.

Experiments:
[1] = test system: A. baumannii (Ab); assay: Broth microdilution minimum inhibitory concentration (MIC); format: cell-based; conditions: Acinetobacter baumannii, read-out: Ab + bicarb MIC
How it was run: (§1)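 Inoculum of 5×10^4 CFU/well, prepared from colonies grown to 0.5 McFarland (A600) at 35±2 °C, is exposed to two-fold serial dilutions in CAMHB-based media (± bicarbonate or human serum). Modified CLSI microdilution, triplicate.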

[2] = test system: S. aureus (Sa); assay: as above; format: cell-based; conditions: Staphylococcus aureus, read-out: Sa + bicarb MIC
How it was run: as §1

[3] = test system: E. coli (Ec); assay: as above; format: cell-based; conditions: Escherichia coli, read-out: E. coli + bicarb MIC
How it was run: as §1

[4] = test system: E. faecalis (Ef); assay: as above; format: cell-based; conditions: for MIC: Enterococcus faecalis, read-out: Ef + bicarb MIC
How it was run: as §1

[5] = test system: P. aeruginosa (Pa); assay: as above; format: cell-based; conditions: for MIC: Pseudomonas aeruginosa, read-out: Pa MIC + bicarb
How it was run: as §1

[6] = molecular target: Rabbit Reticulocyte Lysate (eukaryotic protein synthesis); assay: Rabbit reticulocyte lysate luciferase assay (inhibition of eukaryotic protein synthesis); format: biochemical; conditions: read-out: Rabbit reticulocyte IC50 (μM/% inhib.)
How it was run: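 Compounds were tested in 8-point 2-fold dilution series for blocking luciferase synthesis in nuclease-treated rabbit reticulocyte lysate (30° C., 90 minutes). Luminescence read-out, corrected by no-RNA background, was expressed as % inhibition against water-only reactions.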

[7] = test system: E. coli S30 extract (bacterial protein synthesis); assay: E. coli S30 extract coupled transcription-translation luciferase assay (inhibition of bacterial protein synthesis); format: biochemical; conditions: read-out: S30 IC50 (μM/% inhib.)
How it was run: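 Luminescent read-out of luciferase made from pBESTluc DNA by E. coli S30 extract after 1 h at 37 °C with compound in an 8-point 2-fold series. Background came from no-DNA reactions. Percent inhibition was calculated against water-only controls.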

[8] = A. baumannii, growth medium supplemented with sodium bicarbonate
[9] = S. aureus, growth medium supplemented with sodium bicarbonate
[10] = E. coli, growth medium supplemented with sodium bicarbonate
[11] = E. faecalis, growth medium supplemented with sodium bicarbonate
[12] = P. aeruginosa, growth medium supplemented with sodium bicarbonate
[13] = class by IC50 or % inhibition @ 1 μM
[14] = A. baumannii, growth medium with sodium bicarbonate
[15] = S. aureus, growth medium with sodium bicarbonate
[16] = E. coli, growth medium with sodium bicarbonate
[17] = E. faecalis, growth medium with sodium bicarbonate
[18] = P. aeruginosa, growth medium with sodium bicarbonate

Compound | MIC [1, 8] [µg/mL] | MIC [2, 9] [µg/mL] | MIC [3, 10] [µg/mL] | MIC [4, 11] [µg/mL] | MIC [5, 12] [µg/mL] | IC50 [6, 13] [µM] | IC50 [7, 13] [µM] | MIC [1, 14] [µg/mL] | MIC [2, 15] [µg/mL] | MIC [3, 16] [µg/mL] | MIC [4, 17] [µg/mL] | MIC [5, 18] [µg/mL] | also measured
CCN(Cc1ccc(-n2ccc(NC(=O)N3CCN(C(=O)C(C)(C)N)CC3)nc2=O)cc1)[C@@H]1CC[C@H](N)C1 [Compound 116] | > 32 | 8 to 32 | < 8 | 8 to 32 | > 32 | > 1 | < 0.5 |  |  |  |  |  | 
CC(C)(N)C(=O)N1CCN(C(=O)Nc2ccn(-c3ccc(CN4CC[C@@H](N)[C@H](O)C4)cc3)c(=O)n2)CC1 [Compound 268] |  |  |  |  |  | > 1 | > 1 | > 32 | 8 to 32 | 8 to 32 | > 32 | > 32 | 
CC(C)(N)C(=O)N1CCN(C(=O)Nc2ccn(-c3ccc(CCNCC4CNC4)cc3)c(=O)n2)CC1 [Compound 345, hydrochloride salt] |  |  |  |  |  | > 1 | 0.5 to 1 |  |  |  |  |  | MIC [1]: > 32 µg/mL; MIC [2]: > 32 µg/mL; MIC [3]: > 32 µg/mL; MIC [4]: > 32 µg/mL; MIC [5]: > 32 µg/mL
CC(C)(N)C(=O)N1CCN(C(=O)Nc2ccn(-c3ccc(CNC4CCC(N)CC4)c(Cl)c3)c(=O)n2)CC1 (stereo not shown) [Compound 271] |  |  |  |  |  | > 1 | < 0.5 | > 32 | < 8 | < 8 | < 8 | > 32 | 
CC(C)(N)C(=O)N1CCN(C(=O)Nc2ccn(-c3ccc(CCN4CCC[C@H](CN)C4)cc3)c(=O)n2)CC1 [Compound 26] | > 32 | < 8 | < 8 | 8 to 32 | > 32 | > 1 | < 0.5 |  |  |  |  |  | 
CC(C)(N)C(=O)N1CCN(C(=O)Nc2ccn(-c3ccc(CN4CCC(N)C(C)(C)C4)cc3)c(=O)n2)CC1 (stereo not shown) [Compound 254] |  |  |  |  |  | > 1 | 0.5 to 1 | < 8 | < 8 | < 8 | < 8 | > 32 | 
CC(Cc1ccc(-n2ccc(NC(=O)N3CCN(C(=O)C(C)(C)N)CC3)nc2=O)cc1)N[C@H]1CC[C@H](N)C1 (stereo partly shown) [Compound 162] | > 32 | < 8 | < 8 | 8 to 32 | > 32 | > 1 | < 0.5 |  |  |  |  |  | 
CC(C)(N)C(=O)N1CCN(C(=O)Nc2ccn(-c3ccc(CN(C4CC4)[C@H]4CC[C@H](N)CC4)cc3)c(=O)n2)CC1 [Compound 348, hydrochloride salt] |  |  |  |  |  |  |  |  |  |  |  |  | MIC [1]: > 32 µg/mL; MIC [2]: 8 to 32 µg/mL; MIC [3]: < 8 µg/mL; MIC [4]: > 32 µg/mL; MIC [5]: > 32 µg/mL; IC50 ([6]; % inhibition @ 1 μM): > 1 µM; IC50 ([7]; % inhibition @ 1 μM): < 0.5 µM
CC[C@@H]1CN(Cc2ccc(-n3ccc(NC(=O)N4CCN(C(=O)C(C)(C)N)CC4)nc3=O)cc2)CC[C@H]1N (stereo in doubt) [Compound 213] |  |  |  |  |  | > 1 | < 0.5 | > 32 | < 8 | < 8 | < 8 | > 32 | 
CCN(C(C)Cc1ccc(-n2ccc(NC(=O)N3CCN(C(=O)C(C)(C)N)CC3)nc2=O)cc1)C1CCC(N)CC1 (stereo not shown) [Compound 281] |  |  |  |  |  | > 1 | < 0.5 | > 32 | < 8 | < 8 |  |  | Ef + bicarb MIC [4, 17]: +++ (An MIC value (μg/mL) that is less than 8 μg/mL); Pa MIC + bicarb [5, 18]: ++ (An MIC value (μg/mL) that is 8 μg/mL or greater and less than 32 μg/mL)
CN(Cc1ccc(-n2ccc(NC(=O)N3CCN(C(=O)C(C)(C)N)CC3)nc2=O)cc1)CC1CNC1 [Compound 111] | > 32 | 8 to 32 | 8 to 32 | > 32 | > 32 | > 1 | 0.5 to 1 |  |  |  |  |  | 
CC(C)(N)C(=O)N1CCN(C(=O)Nc2ccn(-c3ccc(CN4CC[C@H](N)[C@@H](F)C4)cc3)c(=O)n2)CC1 [Compound 344, hydrochloride salt] |  |  |  |  |  | > 1 | > 1 |  |  |  |  |  | MIC [1]: > 32 µg/mL; MIC [2]: > 32 µg/mL; MIC [3]: > 32 µg/mL; MIC [4]: > 32 µg/mL; MIC [5]: > 32 µg/mL
C[C@@H]1CN(C(=O)C(C)(C)N)CCN1C(=O)Nc1ccn(-c2ccc(CCN3CCCC(N)CC3)cc2)c(=O)n1 (stereo partly shown) [Compound 90] | < 8 | < 8 | < 8 | < 8 | > 32 | > 1 | < 0.5 |  |  |  |  |  | 
